{"source": "patent US10485772B2", "about": "“Compositions for modulating cancer stem cells and uses therefor” (University of Canberra, priority 2014, dated 2019)", "tested_on": "laminin-5, uPAR and CD44 transcripts in MDA-MB 231 cells", "test": "TaqMan real time PCR transcript analysis of EMT/CSC genes in basal/metastatic model", "assay_type": "cell-based, human", "conditions": "bisindolylmaleimide-I 4 μM", "procedure": "For most of the experiments, total RNA was extracted from 5×10^5 to 1×10^6 MCF-7 cells unless otherwise specified. Cells were first thawed in 1 mL of Trizol® Reagent (Invitrogen, Carlsbad, Calif.) for 5 minutes at room temperature to inactivate RNases, followed by trituration to dislodge the cell pellet. The dissociated cells suspended in Tizol (1 mL) were transferred into a 1.5 mL Eppendorf tube for 5 minutes for homogenization. RNA was then extracted by addition of 200 μL chloroform and mixing was done vigorously before centrifuging the samples at 8,000×g for 30 minutes at 4° C. The aqueous layer was then collected into a fresh 1.5 mL Eppendorf tube and an equal volume of isopropanolol was added to the aqueous layer and mixed gently. After 5 minutes at room temperature, samples were either snap frozen on dry ice and stored at −70° C. overnight or until the isolation procedure could be re-commenced. […] Next, 2 μL of the sample was taken out to measure RNA quality and quantity on Nano-drop® Spectrophotometer ND 1000 (Nanodrop Technologies, Inc., Wilmington, Del., USA) using ND-1000 V3.30 software. […]\nSuperscript™® III kit (Invitrogen, Carlsbad, Calif.) was used for cDNA synthesis. […] All the samples were either snap frozen on dry ice or used immediately for quantitative Real-Time PCR analysis. […]", "data": [{"smiles": "CN(C)CCCn1cc(C2=C(c3c[nH]c4ccccc34)C(=O)NC2=O)c2ccccc21", "note": "[bisindolylmaleimide-I]", "values": [{"measurement": "transcription of key inducible EMT/CSC genes (laminin-5, uPAR, CD44)", "value": "inhibits transcription of key inducible EMT/CSC genes"}, {"measurement": "transcription of key inducible EMT/CSC genes (laminin-5, uPAR, CD44)", "setting": "listed as Broad spectrum PKC pathway inhibitor", "value": "inhibition of EMT and CSC formation"}]}]}
